Assay [1] concerns the target Thrombin and coagulation factor X (Homo sapiens) (UniProt P00734+P00742). Briefly: Anticoagulant potency against double prothrombin time. It counts as functional.
In assay [2] the target is Coagulation factor X (Homo sapiens) (UniProt P00742). Briefly: Binding affinity as apparent association constant for human coagulation factor X.
In assay [3] the target is Plasminogen (Homo sapiens) (UniProt P00747). Description: Binding affinity as apparent association constant for Plasmin.
The target of assay [4] is Serine protease 1 (Homo sapiens) (UniProt P07477). Briefly: Binding affinity as apparent association constant for Trypsin.
Assay [5] concerns the target Urokinase-type plasminogen activator (Homo sapiens) (UniProt P00749). Description: Binding affinity as apparent association constant for Urokinase.
Assay [6] concerns the target Prothrombin (Homo sapiens) (UniProt P00734). Briefly: Binding affinity as apparent association constant for Coagulation factor II.
The target in assay [7] is Tissue-type plasminogen activator (Homo sapiens) (UniProt P00750). Briefly: Binding affinity as apparent association constant for Tissue plasminogen activator.

Each structure is given as a SMILES string. Where only a bound is given, the exact number is not on record here.

Coagulation factor X (Homo sapiens), sequence (P00742 41-179 limits assumed): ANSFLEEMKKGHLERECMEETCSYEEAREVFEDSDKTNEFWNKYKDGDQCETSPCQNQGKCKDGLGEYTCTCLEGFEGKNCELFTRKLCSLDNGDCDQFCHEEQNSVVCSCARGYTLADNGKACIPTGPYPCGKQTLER
Coagulation factor X (Homo sapiens), sequence (P00742 235-488 limits assumed): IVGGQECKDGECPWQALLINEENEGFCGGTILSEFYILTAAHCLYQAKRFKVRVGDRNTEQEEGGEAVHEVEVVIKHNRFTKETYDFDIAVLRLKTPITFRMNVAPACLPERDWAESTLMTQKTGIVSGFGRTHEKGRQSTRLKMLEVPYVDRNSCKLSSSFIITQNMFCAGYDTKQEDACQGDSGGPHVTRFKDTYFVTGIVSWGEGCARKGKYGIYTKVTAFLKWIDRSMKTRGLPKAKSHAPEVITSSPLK
Thrombin and coagulation factor X (Homo sapiens), sequence (P00742 whole entry, looked up, other chains not shown): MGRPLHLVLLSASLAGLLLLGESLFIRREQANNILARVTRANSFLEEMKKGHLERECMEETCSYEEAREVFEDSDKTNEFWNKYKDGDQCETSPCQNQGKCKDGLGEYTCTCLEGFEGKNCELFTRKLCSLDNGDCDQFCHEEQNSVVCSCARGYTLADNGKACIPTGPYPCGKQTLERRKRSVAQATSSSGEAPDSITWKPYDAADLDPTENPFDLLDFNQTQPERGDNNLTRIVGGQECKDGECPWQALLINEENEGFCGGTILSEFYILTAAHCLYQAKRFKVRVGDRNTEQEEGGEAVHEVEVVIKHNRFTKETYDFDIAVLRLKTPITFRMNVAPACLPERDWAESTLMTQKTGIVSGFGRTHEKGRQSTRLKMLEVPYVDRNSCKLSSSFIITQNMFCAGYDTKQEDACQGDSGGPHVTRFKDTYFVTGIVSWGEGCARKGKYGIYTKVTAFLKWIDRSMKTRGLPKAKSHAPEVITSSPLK
Tissue-type plasminogen activator (Homo sapiens), sequence (P00750 36-562 limits assumed): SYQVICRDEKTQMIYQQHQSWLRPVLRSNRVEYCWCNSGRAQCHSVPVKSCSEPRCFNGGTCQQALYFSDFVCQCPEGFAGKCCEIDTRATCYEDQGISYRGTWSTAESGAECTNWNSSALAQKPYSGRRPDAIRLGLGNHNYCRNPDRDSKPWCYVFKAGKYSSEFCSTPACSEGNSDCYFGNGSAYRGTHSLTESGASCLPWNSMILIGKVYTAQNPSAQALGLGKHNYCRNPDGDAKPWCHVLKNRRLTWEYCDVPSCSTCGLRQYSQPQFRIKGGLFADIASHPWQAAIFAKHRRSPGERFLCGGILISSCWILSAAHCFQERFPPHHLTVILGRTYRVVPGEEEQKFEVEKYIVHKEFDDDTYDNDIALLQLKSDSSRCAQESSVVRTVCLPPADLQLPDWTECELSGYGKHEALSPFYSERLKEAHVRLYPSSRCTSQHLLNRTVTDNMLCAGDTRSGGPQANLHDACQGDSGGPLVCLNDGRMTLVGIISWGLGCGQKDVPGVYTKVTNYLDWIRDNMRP
Plasminogen (Homo sapiens), sequence (P00747 97-580 limits assumed): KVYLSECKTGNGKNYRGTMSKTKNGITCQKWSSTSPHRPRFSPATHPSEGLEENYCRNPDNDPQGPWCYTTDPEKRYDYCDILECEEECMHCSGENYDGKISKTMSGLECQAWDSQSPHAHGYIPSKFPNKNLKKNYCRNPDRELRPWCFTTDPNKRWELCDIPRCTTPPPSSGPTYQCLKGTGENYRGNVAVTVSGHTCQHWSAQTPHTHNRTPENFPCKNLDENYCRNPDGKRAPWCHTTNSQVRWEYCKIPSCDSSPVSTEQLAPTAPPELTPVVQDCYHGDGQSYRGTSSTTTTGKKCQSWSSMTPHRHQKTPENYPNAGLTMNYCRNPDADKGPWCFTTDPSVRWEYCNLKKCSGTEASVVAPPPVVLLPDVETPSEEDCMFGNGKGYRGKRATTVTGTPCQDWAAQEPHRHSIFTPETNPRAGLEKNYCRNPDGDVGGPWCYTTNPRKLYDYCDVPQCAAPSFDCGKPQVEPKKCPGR
Plasminogen (Homo sapiens), sequence (P00747 581-810 limits assumed): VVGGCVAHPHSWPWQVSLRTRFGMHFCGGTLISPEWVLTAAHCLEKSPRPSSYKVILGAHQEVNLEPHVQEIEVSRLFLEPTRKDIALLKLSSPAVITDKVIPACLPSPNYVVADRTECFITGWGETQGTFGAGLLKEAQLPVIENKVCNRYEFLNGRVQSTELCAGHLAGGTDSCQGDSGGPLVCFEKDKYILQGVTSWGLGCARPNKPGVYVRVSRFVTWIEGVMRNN
Serine protease 1 (Homo sapiens), sequence (P07477 whole entry): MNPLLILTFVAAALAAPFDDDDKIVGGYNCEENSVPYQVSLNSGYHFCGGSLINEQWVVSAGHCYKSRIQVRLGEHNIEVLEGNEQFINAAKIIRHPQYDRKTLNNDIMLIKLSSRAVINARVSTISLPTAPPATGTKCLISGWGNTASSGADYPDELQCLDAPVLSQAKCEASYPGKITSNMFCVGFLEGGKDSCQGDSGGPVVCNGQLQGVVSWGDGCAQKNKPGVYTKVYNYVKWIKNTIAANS

As to `O=C(Nc1ccccc1NC(=O)c1ccc(OC(F)F)cc1)OCC1CCN(c2ccncc2)CC1`, the PT in assay [1] worked out at 6 µM. Also, in assay [2], the K ass is 5e+06 L/mol.

As to `CC(C)(C)c1ccc(C(=O)Nc2ccccc2NC(=O)c2cccc(C(=N)N)c2)cc1`, the PT in assay [1] amounted to 0.9 µM. In addition, the K ass in assay [2] is 2.42e+08 L/mol.

For `COc1ccc(C(=O)Nc2ccccc2NC(=O)c2ccc(C(C)(C)C)cc2)cc1`, in assay [1], the PT was > 50 µM. Also, the K ass in assay [2] stood at 7e+06 L/mol.

On to `Cc1cccc(C(=O)Nc2ccccc2NC(=O)OCC2CCN(c3ccncc3)CC2)c1`, for which the K ass in assay [2] amounted to 5.9e+06 L/mol.

Consider `O=C(Nc1ccccc1NC(=O)c1ccc(I)cc1)OCC1CCN(c2ccncc2)CC1`, for which, in assay [1], the PT came out at 6 µM. In assay [2], the K ass was determined as 1.4e+07 L/mol.

`O=C(Nc1ccccc1NC(=O)c1ccc(Br)cc1)OCC1CCN(c2ccncc2)CC1` had a PT in assay [1] of 1.8 µM. Besides, the K ass in assay [2] is 3.8e+07 L/mol.

With `Cc1ccc(C(=O)Nc2ccccc2NC(=O)OCC2CCN(c3ccncc3)CC2)cc1`, the PT in assay [1] worked out at 8 µM. Moreover, the K ass in assay [2] is 6.3e+06 L/mol.

For `Cc1ccc(C(=O)Nc2ccccc2NC(=O)OCC2CCN(c3ccncc3)CC2)cc1Cl`, the PT in assay [1] turned out to be 22 µM. Also, the K ass in assay [2] was found to be 2.3e+06 L/mol.

In the case of `O=C(Nc1ccccc1NC(=O)C1=CCCC1)OCC1CCN(c2ccncc2)CC1`, in assay [2], the K ass stood at 700000 L/mol.

Compound `COc1cccc(C(=O)Nc2ccccc2NC(=O)OCC2CCN(c3ccncc3)CC2)c1` gave a PT in assay [1] of 10 µM. The K ass in assay [2] came to 3.3e+06 L/mol.

Consider `O=C(Nc1ccccc1NC(=O)c1cccc(O)c1)OCC1CCN(c2ccncc2)CC1`, for which the K ass in assay [2] is 1e+06 L/mol.

Take `O=C(Nc1ccccc1NC(=O)c1ccc(F)cc1)OCC1CCN(c2ccncc2)CC1`: the K ass in assay [2] was 4.6e+06 L/mol.

Regarding `O=C(Nc1ccccc1NC(=O)C1=CCCCC1)OCC1CCN(c2ccncc2)CC1`, the K ass in assay [2] came to 900000 L/mol.

The compound `O=C(Nc1ccccc1NC(=O)c1ccc(Cl)s1)OCC1CCN(c2ccncc2)CC1` showed a PT in assay [1] of 2.6 µM. The K ass in assay [2] stood at 3.3e+07 L/mol.

As for `O=C(Nc1ccccc1NC(=O)c1cccc(Cl)c1)OCC1CCN(c2ccncc2)CC1`, the PT in assay [1] turned out to be 12 µM. Further, the K ass in assay [2] was found to be 4.1e+06 L/mol.

Turning to `COc1ccc(C(=O)Nc2ccccc2NC(=O)OCC2CCN(c3ccncc3)CC2)cc1`, the PT in assay [1] worked out at 1.9 µM. Besides, the K ass in assay [2] was determined as 1.9e+07 L/mol.

In assay [1], `O=C(Nc1ccccc1NC(=O)c1cccc(F)c1)OCC1CCN(c2ccncc2)CC1` had a PT of 17 µM. In addition, in assay [2], the K ass is 2.5e+06 L/mol.

With `O=C(Nc1ccccc1NC(=O)c1ccccc1Cl)OCC1CCN(c2ccncc2)CC1`, the K ass in assay [2] turned out to be 300000 L/mol.

Regarding `O=C(Nc1ccccc1NC(=O)c1ccc(Cl)o1)OCC1CCN(c2ccncc2)CC1`, the K ass in assay [2] amounted to 700000 L/mol.

`O=C(Nc1ccccc1NC(=O)C1C=CCCC1)OCC1CCN(c2ccncc2)CC1` (stereo unspecified): in assay [2], the K ass was determined as 200000 L/mol.

Compound `Nc1cccc(C(=O)Nc2ccccc2NC(=O)OCC2CCN(c3ccncc3)CC2)c1` displayed a PT in assay [1] of 8 µM. Moreover, the K ass in assay [2] stood at 5.1e+06 L/mol.

Take `COc1ccccc1C(=O)Nc1ccccc1NC(=O)OCC1CCN(c2ccncc2)CC1`: in assay [2], the K ass came out at 20000 L/mol.

Turning to `O=C(Nc1ccccc1NC(=O)c1cccc(Cl)c1Cl)OCC1CCN(c2ccncc2)CC1`, in assay [1], the PT was 5 µM. For the same compound, the K ass in assay [2] was 1.9e+07 L/mol.

Turning to `Cc1ccc(C(=O)Nc2ccccc2NC(=O)OCC2CCN(c3ccncc3)CC2)cc1F`, in assay [1], the PT is 7 µM. In addition, the K ass in assay [2] worked out at 5.8e+06 L/mol.

In assay [1], `COc1ccc(C(=O)Nc2ccccc2NC(=O)OCC2CCN(c3ccncc3)CC2)cc1F` displayed a PT of 1.1 µM. Also, in assay [2], the K ass was found to be 46 L/mol.

`O=C(Nc1ccccc1NC(=O)c1ccccc1)OCC1CCN(c2ccncc2)CC1`: the K ass in assay [2] worked out at 1.6e+06 L/mol.

With `O=C(Nc1ccccc1NC(=O)c1ccc(Cl)cc1)OCC1CCN(c2ccncc2)CC1`, the Ka was < 10000 L/mol in assay [3]; < 10000 L/mol in assay [4]; < 10000 L/mol in assay [5]; 20000 L/mol in assay [6]; < 10000 L/mol in assay [7]. In addition, the PT in assay [1] was determined as 1.9 µM. Besides, in assay [2], the K ass was found to be 3.5e+07 L/mol.

Take `O=C(Nc1ccccc1NC(=O)C1CCCCC1)OCC1CCN(c2ccncc2)CC1`: in assay [2], the K ass turned out to be 40000 L/mol.

Turning to `O=C(Nc1ccccc1NC(=O)c1ccc2c(c1)CCO2)OCC1CCN(c2ccncc2)CC1`, the K ass in assay [2] came to 600000 L/mol.

On to `COc1ccc(C(=O)Nc2ccccc2NC(=O)C2CCN(c3ccncc3)CC2)cc1`, for which, in assay [1], the PT came out at 9.7 µM. Also, in assay [2], the K ass amounted to 2e+06 L/mol.

On to `N#Cc1ccc(C(=O)Nc2ccccc2NC(=O)OCC2CCN(c3ccncc3)CC2)cc1`, for which, in assay [2], the K ass worked out at 600000 L/mol.

Regarding `O=C(Nc1ccccc1NC(=O)c1ccc2cc[nH]c2c1)OCC1CCN(c2ccncc2)CC1`, the PT in assay [1] is 1.6 µM. Further, the K ass in assay [2] came to 5.4e+07 L/mol.
